Consider 15 sequences from US7785828B1 (priority 2003, dated 2010).

Some test systems named below: Fusarium graminearum; Septoria tritici; Mycosphaerella fijiensis.
Holding throughout (assay type): cell-based

Take “NLCEKASKTWSGNCGNTGHCDTQCKNWEGAKHGACHVRNGKHKCFCYFNC (Defensin like) [L5-12]”: the “Antifungal activity, Fusarium graminearum (improvement compared to DmAMP1)” value with Fusarium graminearum is “++ (key: + indicating 1- to 5-fold improvement compared to DmAMP1; ++ indicating >5- to 10-fold improvement; +++ indicating >10-fold improvement)”. For the same sequence, the “Antifungal activity, Septoria tritici (improvement compared to DmAMP1)” value in the experiment with Septoria tritici was “++ (key: + indicating 1- to 5-fold improvement compared to DmAMP1; ++ indicating >5- to 10-fold improvement; +++ indicating >10-fold improvement)”. Moreover, the “Antifungal activity, Mycosphaerella fijiensis (improvement compared to DmAMP1)” value in the experiment on Mycosphaerella fijiensis is “+ (key: + indicating 1- to 5-fold improvement compared to DmAMP1; ++ indicating >5- to 10-fold improvement; +++ indicating >10-fold improvement)”.
In the case of “NLCEKASKTWSGNCGNTKHCDNQCKNWEGAAHGACHVRNGKHKCFCYFNC (Defensin like) [L6-70]”, the “Antifungal activity, Fusarium graminearum (improvement compared to DmAMP1)” value with Fusarium graminearum is on record as “+++ (key: + indicating 1- to 5-fold improvement compared to DmAMP1; ++ indicating >5- to 10-fold improvement; +++ indicating >10-fold improvement)”. In addition, in the experiment with Septoria tritici, the “Antifungal activity, Septoria tritici (improvement compared to DmAMP1)” value is “+ (key: + indicating 1- to 5-fold improvement compared to DmAMP1; ++ indicating >5- to 10-fold improvement; +++ indicating >10-fold improvement)”. The “Antifungal activity, Mycosphaerella fijiensis (improvement compared to DmAMP1)” value in the experiment with Mycosphaerella fijiensis is “+ (key: + indicating 1- to 5-fold improvement compared to DmAMP1; ++ indicating >5- to 10-fold improvement; +++ indicating >10-fold improvement)”.
In the case of “NLCEKASKTWSGNCGNTKHCDNQCRSWEGAKHGACHVRNGKHKCFCYFNC (Defensin like) [L9-23]”, the “Antifungal activity, Fusarium graminearum (improvement compared to DmAMP1)” value with Fusarium graminearum is recorded as “+++ (key: + indicating 1- to 5-fold improvement compared to DmAMP1; ++ indicating >5- to 10-fold improvement; +++ indicating >10-fold improvement)”. The “Antifungal activity, Septoria tritici (improvement compared to DmAMP1)” value in the experiment on Septoria tritici was “++ (key: + indicating 1- to 5-fold improvement compared to DmAMP1; ++ indicating >5- to 10-fold improvement; +++ indicating >10-fold improvement)”. Moreover, the “Antifungal activity, Mycosphaerella fijiensis (improvement compared to DmAMP1)” value in the experiment with Mycosphaerella fijiensis is “++ (key: + indicating 1- to 5-fold improvement compared to DmAMP1; ++ indicating >5- to 10-fold improvement; +++ indicating >10-fold improvement)”.
Take “NLCEKASKTWSGNCGNTKHCDTQCKSWEGAKHGACHVRNGKHKCFCYFNC (Defensin like) [L5-13]”: the “Antifungal activity, Fusarium graminearum (improvement compared to DmAMP1)” value in the experiment with Fusarium graminearum was “+++ (key: + indicating 1- to 5-fold improvement compared to DmAMP1; ++ indicating >5- to 10-fold improvement; +++ indicating >10-fold improvement)”. For the same sequence, in the experiment on Septoria tritici, the “Antifungal activity, Septoria tritici (improvement compared to DmAMP1)” value is recorded as “+++ (key: + indicating 1- to 5-fold improvement compared to DmAMP1; ++ indicating >5- to 10-fold improvement; +++ indicating >10-fold improvement)”. In addition, the “Antifungal activity, Mycosphaerella fijiensis (improvement compared to DmAMP1)” value in the experiment with Mycosphaerella fijiensis is “+ (key: + indicating 1- to 5-fold improvement compared to DmAMP1; ++ indicating >5- to 10-fold improvement; +++ indicating >10-fold improvement)”.
On to “NLCEKASKTWSGNCGNTKHCDTQCRNWEGAKHGACHKRNGKWKCFCYFNC (Defensin like) [L9-46]”, for which the “Antifungal activity, Fusarium graminearum (improvement compared to DmAMP1)” value with Fusarium graminearum is listed as “+++ (key: + indicating 1- to 5-fold improvement compared to DmAMP1; ++ indicating >5- to 10-fold improvement; +++ indicating >10-fold improvement)”. In addition, the “Antifungal activity, Septoria tritici (improvement compared to DmAMP1)” value in the experiment with Septoria tritici is listed as “+++ (key: + indicating 1- to 5-fold improvement compared to DmAMP1; ++ indicating >5- to 10-fold improvement; +++ indicating >10-fold improvement)”. Besides, the “Antifungal activity, Mycosphaerella fijiensis (improvement compared to DmAMP1)” value in the experiment with Mycosphaerella fijiensis is reported as “++ (key: + indicating 1- to 5-fold improvement compared to DmAMP1; ++ indicating >5- to 10-fold improvement; +++ indicating >10-fold improvement)”.
Take “NLCEKASKTWSGNCGNTKHCDTQCRNWEGAKHGACHVRNGKHKCFCYFNC (Defensin like) [L6-13]”: in the experiment with Fusarium graminearum, the “Antifungal activity, Fusarium graminearum (improvement compared to DmAMP1)” value was “+++ (key: + indicating 1- to 5-fold improvement compared to DmAMP1; ++ indicating >5- to 10-fold improvement; +++ indicating >10-fold improvement)”. In addition, in the experiment with Septoria tritici, the “Antifungal activity, Septoria tritici (improvement compared to DmAMP1)” value was “+++ (key: + indicating 1- to 5-fold improvement compared to DmAMP1; ++ indicating >5- to 10-fold improvement; +++ indicating >10-fold improvement)”. For the same sequence, in the experiment on Mycosphaerella fijiensis, the “Antifungal activity, Mycosphaerella fijiensis (improvement compared to DmAMP1)” value is on record as “++ (key: + indicating 1- to 5-fold improvement compared to DmAMP1; ++ indicating >5- to 10-fold improvement; +++ indicating >10-fold improvement)”.
“NLCEKASKTWTGNCGNTKHCDNQCRNWEGAAHGACHKRNGKWKCFCYFNC (Defensin like) [L3-71]”: in the experiment with Fusarium graminearum, the “Antifungal activity, Fusarium graminearum (improvement compared to DmAMP1)” value is “+++ (key: + indicating 1- to 5-fold improvement compared to DmAMP1; ++ indicating >5- to 10-fold improvement; +++ indicating >10-fold improvement)”. Besides, the “Antifungal activity, Septoria tritici (improvement compared to DmAMP1)” value in the experiment with Septoria tritici is listed as “+++ (key: + indicating 1- to 5-fold improvement compared to DmAMP1; ++ indicating >5- to 10-fold improvement; +++ indicating >10-fold improvement)”. For the same sequence, the “Antifungal activity, Mycosphaerella fijiensis (improvement compared to DmAMP1)” value with Mycosphaerella fijiensis was “+++ (key: + indicating 1- to 5-fold improvement compared to DmAMP1; ++ indicating >5- to 10-fold improvement; +++ indicating >10-fold improvement)”.
As for “NLCEKASKTWTGNCGNTKHCDNQCRNWEGAAHGACHKRSGKWKCFCYFNC (Defensin like) [L9-36]”, in the experiment with Fusarium graminearum, the “Antifungal activity, Fusarium graminearum (improvement compared to DmAMP1)” value is recorded as “+ (key: + indicating 1- to 5-fold improvement compared to DmAMP1; ++ indicating >5- to 10-fold improvement; +++ indicating >10-fold improvement)”. In addition, the “Antifungal activity, Septoria tritici (improvement compared to DmAMP1)” value in the experiment with Septoria tritici was “+ (key: + indicating 1- to 5-fold improvement compared to DmAMP1; ++ indicating >5- to 10-fold improvement; +++ indicating >10-fold improvement)”. Moreover, the “Antifungal activity, Mycosphaerella fijiensis (improvement compared to DmAMP1)” value in the experiment on Mycosphaerella fijiensis was “+ (key: + indicating 1- to 5-fold improvement compared to DmAMP1; ++ indicating >5- to 10-fold improvement; +++ indicating >10-fold improvement)”.
“NLCEKASKTWTGNCGNTKHCDNQCRNWEGAKHGACHVRSGKHKCFCYFNC (Defensin like) [L9-22]”: the “Antifungal activity, Fusarium graminearum (improvement compared to DmAMP1)” value in the experiment with Fusarium graminearum is recorded as “+++ (key: + indicating 1- to 5-fold improvement compared to DmAMP1; ++ indicating >5- to 10-fold improvement; +++ indicating >10-fold improvement)”. Besides, the “Antifungal activity, Septoria tritici (improvement compared to DmAMP1)” value in the experiment with Septoria tritici is on record as “+++ (key: + indicating 1- to 5-fold improvement compared to DmAMP1; ++ indicating >5- to 10-fold improvement; +++ indicating >10-fold improvement)”. For the same sequence, in the experiment on Mycosphaerella fijiensis, the “Antifungal activity, Mycosphaerella fijiensis (improvement compared to DmAMP1)” value is on record as “+ (key: + indicating 1- to 5-fold improvement compared to DmAMP1; ++ indicating >5- to 10-fold improvement; +++ indicating >10-fold improvement)”.
In the case of “NLCEKASKTWTGNCGNTKHCDTQCKNWEGAKHGACHKRNGKWKCFCYFNC (Defensin like) [L9-45]”, the “Antifungal activity, Fusarium graminearum (improvement compared to DmAMP1)” value in the experiment on Fusarium graminearum is recorded as “+ (key: + indicating 1- to 5-fold improvement compared to DmAMP1; ++ indicating >5- to 10-fold improvement; +++ indicating >10-fold improvement)”. In addition, the “Antifungal activity, Septoria tritici (improvement compared to DmAMP1)” value with Septoria tritici is reported as “+ (key: + indicating 1- to 5-fold improvement compared to DmAMP1; ++ indicating >5- to 10-fold improvement; +++ indicating >10-fold improvement)”. Further, in the experiment with Mycosphaerella fijiensis, the “Antifungal activity, Mycosphaerella fijiensis (improvement compared to DmAMP1)” value is “+ (key: + indicating 1- to 5-fold improvement compared to DmAMP1; ++ indicating >5- to 10-fold improvement; +++ indicating >10-fold improvement)”.
With “NLCEKASKTWTGNCGNTKHCDTQCKNWEGAKHGACHVRNGKWKCFCYFNC (Defensin like) [L6-69]”, the “Antifungal activity, Fusarium graminearum (improvement compared to DmAMP1)” value with Fusarium graminearum was “+++ (key: + indicating 1- to 5-fold improvement compared to DmAMP1; ++ indicating >5- to 10-fold improvement; +++ indicating >10-fold improvement)”. Besides, the “Antifungal activity, Septoria tritici (improvement compared to DmAMP1)” value in the experiment with Septoria tritici is “+++ (key: + indicating 1- to 5-fold improvement compared to DmAMP1; ++ indicating >5- to 10-fold improvement; +++ indicating >10-fold improvement)”. For the same sequence, the “Antifungal activity, Mycosphaerella fijiensis (improvement compared to DmAMP1)” value in the experiment on Mycosphaerella fijiensis is reported as “+ (key: + indicating 1- to 5-fold improvement compared to DmAMP1; ++ indicating >5- to 10-fold improvement; +++ indicating >10-fold improvement)”.
With “NLCEKASKTWTGNCGNTKHCDTQCKSWEGAKHGACHKRNGKWKCFCYFNC (Defensin like) [L5-22]”, the “Antifungal activity, Fusarium graminearum (improvement compared to DmAMP1)” value in the experiment with Fusarium graminearum was “++ (key: + indicating 1- to 5-fold improvement compared to DmAMP1; ++ indicating >5- to 10-fold improvement; +++ indicating >10-fold improvement)”. Besides, the “Antifungal activity, Septoria tritici (improvement compared to DmAMP1)” value in the experiment with Septoria tritici was “++ (key: + indicating 1- to 5-fold improvement compared to DmAMP1; ++ indicating >5- to 10-fold improvement; +++ indicating >10-fold improvement)”. For the same sequence, in the experiment on Mycosphaerella fijiensis, the “Antifungal activity, Mycosphaerella fijiensis (improvement compared to DmAMP1)” value is “+ (key: + indicating 1- to 5-fold improvement compared to DmAMP1; ++ indicating >5- to 10-fold improvement; +++ indicating >10-fold improvement)”.
Regarding “NLCEKASKTWTGNCGNTKHCDTQCKSWEGAKHGACHVRSGKHKCFCYFNC (Defensin like) [L9-29]”, the “Antifungal activity, Fusarium graminearum (improvement compared to DmAMP1)” value in the experiment with Fusarium graminearum is “+++ (key: + indicating 1- to 5-fold improvement compared to DmAMP1; ++ indicating >5- to 10-fold improvement; +++ indicating >10-fold improvement)”. Besides, the “Antifungal activity, Septoria tritici (improvement compared to DmAMP1)” value in the experiment on Septoria tritici is “++ (key: + indicating 1- to 5-fold improvement compared to DmAMP1; ++ indicating >5- to 10-fold improvement; +++ indicating >10-fold improvement)”. In the experiment on Mycosphaerella fijiensis, the “Antifungal activity, Mycosphaerella fijiensis (improvement compared to DmAMP1)” value is “++ (key: + indicating 1- to 5-fold improvement compared to DmAMP1; ++ indicating >5- to 10-fold improvement; +++ indicating >10-fold improvement)”.
Take “NLCEKASKTWTGNCGNTKHCDTQCRNWEGAKHGACHKRNGKWKCFCYFNC (Defensin like) [L6-32]”: the “Antifungal activity, Fusarium graminearum (improvement compared to DmAMP1)” value in the experiment with Fusarium graminearum is “+++ (key: + indicating 1- to 5-fold improvement compared to DmAMP1; ++ indicating >5- to 10-fold improvement; +++ indicating >10-fold improvement)”. In addition, the “Antifungal activity, Septoria tritici (improvement compared to DmAMP1)” value in the experiment with Septoria tritici is “+++ (key: + indicating 1- to 5-fold improvement compared to DmAMP1; ++ indicating >5- to 10-fold improvement; +++ indicating >10-fold improvement)”. Also, the “Antifungal activity, Mycosphaerella fijiensis (improvement compared to DmAMP1)” value in the experiment with Mycosphaerella fijiensis was “+++ (key: + indicating 1- to 5-fold improvement compared to DmAMP1; ++ indicating >5- to 10-fold improvement; +++ indicating >10-fold improvement)”.
For “NLCERASKTWSGNCGNTKHCDNQCKNWEGAKHGACHVRNGKHKCFCYFNC [L6-60] (Defensin like)”, the “Antifungal activity, Fusarium graminearum (improvement compared to DmAMP1)” value in the experiment with Fusarium graminearum was “+++ (key: + indicating 1- to 5-fold improvement compared to DmAMP1; ++ indicating >5- to 10-fold improvement; +++ indicating >10-fold improvement)”. Further, the “Antifungal activity, Septoria tritici (improvement compared to DmAMP1)” value in the experiment on Septoria tritici is “+++ (key: + indicating 1- to 5-fold improvement compared to DmAMP1; ++ indicating >5- to 10-fold improvement; +++ indicating >10-fold improvement)”. The “Antifungal activity, Mycosphaerella fijiensis (improvement compared to DmAMP1)” value in the experiment on Mycosphaerella fijiensis was “+ (key: + indicating 1- to 5-fold improvement compared to DmAMP1; ++ indicating >5- to 10-fold improvement; +++ indicating >10-fold improvement)”.
